# Experimental data: US5091425A, “5-(heterocyclylalkanoyl)amino-4-hydroxypentanamides” (Imperial Chemical Industries plc, priority 1988, dated 1992)
# Target: T1, partially purified human renin (Homo sapiens, UniProt P00797)
# T1 sequence (P00797 67-406): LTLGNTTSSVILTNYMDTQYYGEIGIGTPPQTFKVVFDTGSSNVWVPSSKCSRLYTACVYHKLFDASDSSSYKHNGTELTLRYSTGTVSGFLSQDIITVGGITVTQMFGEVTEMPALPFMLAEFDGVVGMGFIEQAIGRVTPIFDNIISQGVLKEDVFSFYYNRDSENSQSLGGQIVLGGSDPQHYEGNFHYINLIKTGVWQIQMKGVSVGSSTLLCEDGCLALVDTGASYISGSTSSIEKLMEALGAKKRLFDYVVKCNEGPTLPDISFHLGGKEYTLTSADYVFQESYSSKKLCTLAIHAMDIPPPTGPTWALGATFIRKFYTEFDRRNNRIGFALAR
# Assay: in vitro inhibition of renin-catalysed angiotensin I generation (radioimmunoassay)
# Assay type: biochemical
# Conditions: human renin with angiotensinogen; angiotensin I by radioimmunoassay; read-out: IC50 (concentration for 50% inhibition of the renin catalysed reaction)
# Method: The inhibition of the catalytic activity of renin, and in particular of human renin, may be assessed in vitro using a routine laboratory procedure involving the incubation of a test compound initially at a concentration of 100 micromolar in a buffered mixture containing appropriate concentrations of partially purified human renin and the natural renin substrate angiotensinogen. The formation of the angiotensin known as angiotensin I (which is assayed by a standard radioimmunoassay using procedures well known in the art) is inhibited by those compounds which inhibit the action of renin and the degree of inhibition is readily determined by comparing the angiotensin I generation rate in the presence of the test compound (at the specified test concentration) with the control rate of angiotensin I generation in the absence of the test compound.
# In this standard test procedure, compounds which show at least 30% inhibition are retested at lower concentrations to determine their inhibitory potency. For determination of the IC50 (concentration for 50% inhibition of the renin catalysed reaction), concentrations are ordinarily chosen to allow testing over at least four orders of magnitude centred about the predicted approximate IC50, which latter is subsequently determined from a plot of percentage inhibition against concentration of the test compound. […]
structure (smiles),measurement,value
"CCCCNC(=O)[C@@H](C[C@H](O)[C@H](CC1CCCCC1)NC(=O)C(Cc1cccnc1)c1nnc2c(CCC)nc(-c3cccnc3)cn12)C(C)C (mixture of isomers) [Example 6, (2S,4S,5S)-N-butyl-6-cyclohexyl-4-hydroxy-2-isopropyl-5-[(2RS)-2-(8-propyl-6-(3-pyridyl)-1,2,4-triazolo[4,3-a]pyrazin-3-yl)-3-(3-pyridyl)propionamido]hexanamide]",IC50,0.2 nM
